Laboratory results reported in patent publication US9873709B2 (priority 2013, dated 2018).

Each compound was assayed on JAK1-dependent STAT6 phosphorylation downstream of IL-13 stimulation in TF-1 human erythroleukemia cells (assay: cells). Settings: TF-1, read-out: IL-13-pSTAT6 IC50.

Compound	IC50
O=C(NCC1CC12CCNCC2)c1ccc(Nc2nc3c(C4=CCN(C(=O)CCC(F)(F)F)CC4)cccn3n2)cc1 (stereo not drawn) [Example 2-388, N-(6-azaspiro[2.5]octan-2-ylmethyl)-4-[[8-[1-(4,4,4-trifluorobutanoyl)-3,6-dihydro-2H-pyridin-4-yl]-[1,2,4]triazolo[1,5-a]pyridin-2-yl]amino]benzamide]	141 nM
CN1CCCC(CN(C)C(=O)c2ccc(Nc3nc4c(C5=CCN(C(=O)CCC(F)(F)F)CC5)cccn4n3)cc2)C1 (stereo not drawn) [Example 2-389, N-methyl-N-[(1-methyl-3-piperidyl)methyl]-4-[[8-[1-(4,4,4-trifluorobutanoyl)-3,6-dihydro-2H-pyridin-4-yl]-[1,2,4]triazolo[1,5-a]pyridin-2-yl]amino]benzamide]	12.6 nM
O=C(CCC(F)(F)F)N1CC=C(c2cccn3nc(Nc4ccc(C(=O)N5CCCC(O)(CN6CCCC6)CC5)cc4)nc23)CC1 (stereo not drawn) [Example 2-390, 4,4,4-trifluoro-1-[4-[2-[4-[4-hydroxy-4-(pyrrolidin-1-ylmethyl)azepane-1-carbonyl]anilino]-[1,2,4]triazolo[1,5-a]pyridin-8-yl]-3,6-dihydro-2H-pyridin-1-yl]butan-1-one]	178 nM
O=C(CCC(F)(F)F)N1CC=C(c2cccn3nc(Nc4ccc(C(=O)N5CC6(CNC6)C5)cc4)nc23)CC1 [Example 2-392, 1-[4-[2-[4-(2,6-diazaspiro[3.3]heptane-2-carbonyl)anilino]-[1,2,4]triazolo[1,5-a]pyridin-8-yl]-3,6-dihydro-2H-pyridin-1-yl]-4,4,4-trifluoro-butan-1-one]	217 nM
CN1CCN(C2CCN(C(=O)c3ccc(Nc4nc5c(C6=CCN(C(=O)CCC(F)(F)F)CC6)cccn5n4)cc3)CC2)CC1 [Example 2-393, 4,4,4-trifluoro-1-[4-[2-[4-[4-(4-methylpiperazin-1-yl)piperidine-1-carbonyl]anilino]-[1,2,4]triazolo[1,5-a]pyridin-8-yl]-3,6-dihydro-2H-pyridin-1-yl]butan-1-one]	23.4 nM
O=C(CCC(F)(F)F)N1CC=C(c2cccn3nc(Nc4ccc(C(=O)N5CCN(c6ccccn6)CC5)cc4)nc23)CC1 [Example 2-397, 4,4,4-trifluoro-1-[4-[2-[4-[4-(2-pyridyl)piperazine-1-carbonyl]anilino]-[1,2,4]triazolo[1,5-a]pyridin-8-yl]-3,6-dihydro-2H-pyridin-1-yl]butan-1-one]	20.2 nM
O=C(CCC(F)(F)F)N1CC=C(c2cccn3nc(Nc4ccc(C(=O)N5CCN(CC6CC6)CC5)cc4)nc23)CC1 [Example 2-398, 1-[4-[2-[4-[4-(cyclopropylmethyl)piperazine-1-carbonyl]anilino]-[1,2,4]triazolo[1,5-a]pyridin-8-yl]-3,6-dihydro-2H-pyridin-1-yl]-4,4,4-trifluoro-butan-1-one]	8.6 nM
CC(CN(C)C)NC(=O)c1ccc(Nc2nc3c(C4=CCN(C(=O)CCC(F)(F)F)CC4)cccn3n2)cc1 (stereo not drawn) [Example 2-399, N-[2-(dimethylamino)-1-methyl-ethyl]-4-[[8-[1-(4,4,4-trifluorobutanoyl)-3,6-dihydro-2H-pyridin-4-yl]-[1,2,4]triazolo[1,5-a]pyridin-2-yl]amino]benzamide]	12.1 nM
O=C(CCC(F)(F)F)N1CC=C(c2cccn3nc(Nc4ccc(C(=O)N5CCCC(N6CCCCCC6)C5)cc4)nc23)CC1 (stereo not drawn) [Example 2-403, 1-[4-[2-[4-[3-(azepan-1-yl)piperidine-1-carbonyl]anilino]-[1,2,4]triazolo[1,5-a]pyridin-8-yl]-3,6-dihydro-2H-pyridin-1-yl]-4,4,4-trifluoro-butan-1-one]	7.4 nM
O=C(CCC(F)(F)F)N1CC=C(c2cccn3nc(Nc4ccc(C(=O)N5CCC(Cc6ccccn6)CC5)cc4)nc23)CC1 [Example 2-404, 4,4,4-trifluoro-1-[4-[2-[4-[4-(2-pyridylmethyl)piperidine-1-carbonyl]anilino]-[1,2,4]triazolo[1,5-a]pyridin-8-yl]-3,6-dihydro-2H-pyridin-1-yl]butan-1-one]	13.2 nM
O=C(CCC(F)(F)F)N1CC=C(c2cccn3nc(Nc4ccc(C(=O)N5CCC(Cc6cccnc6)C5)cc4)nc23)CC1 (stereo not drawn) [Example 2-405, 4,4,4-trifluoro-1-[4-[2-[4-[3-(3-pyridylmethyl)pyrrolidine-1-carbonyl]anilino]-[1,2,4]triazolo[1,5-a]pyridin-8-yl]-3,6-dihydro-2H-pyridin-1-yl]butan-one]	7.5 nM

Compounds with a lower IC50, results first:

IC50	Compound
6.8 nM	CCCN1CCC(N(C(=O)c2ccc(Nc3nc4c(C5=CCN(C(=O)CCC(F)(F)F)CC5)cccn4n3)cc2)C2CC2)CC1 [Example 2-400, N-cyclopropyl-N-(1-propyl-4-piperidyl)-4-[[8-[1-(4,4,4-trifluorobutanoyl)-3,6-dihydro-2H-pyridin-4-yl]-[1,2,4]triazolo[1,5-a]pyridin-2-yl]amino]benzamide]
6 nM	Cc1cccc(C(C)NC(=O)c2ccc(Nc3nc4c(C5=CCN(C(=O)CCC(F)(F)F)CC5)cccn4n3)cc2)n1 (stereo not drawn) [Example 2-401, N-[1-(6-methyl-2-pyridyl)ethyl]-4-[[8-[1-(4,4,4-trifluorobutanoyl)-3,6-dihydro-2H-pyridin-4-yl]-[1,2,4]triazolo[1,5-a]pyridin-2-yl]amino]benzamide]
5.7 nM	CN1CCC2(CC1)CN(C(=O)c1ccc(Nc3nc4c(C5=CCN(C(=O)CCC(F)(F)F)CC5)cccn4n3)cc1)C2 [Example 2-391, 4,4,4-trifluoro-1-[4-[2-[4-(7-methyl-2,7-diazaspiro[3.5]nonane-2-carbonyl)anilino]-[1,2,4]triazolo[1,5-a]pyridin-8-yl]-3,6-dihydro-2H-pyridin-1-yl]butan-1-one]
5.6 nM	CN(Cc1cccnc1)C(=O)c1ccc(Nc2nc3c(C4=CCN(C(=O)CCC(F)(F)F)CC4)cccn3n2)cc1 [Example 2-402, N-methyl-N-(3-pyridylmethyl)-4-[[8-[1-(4,4,4-trifluorobutanoyl)-3,6-dihydro-2H-pyridin-4-yl]-[1,2,4]triazolo[1,5-a]pyridin-2-yl]amino]benzamide]
5.4 nM	O=C(CCC(F)(F)F)N1CC=C(c2cccn3nc(Nc4ccc(C(=O)N5CCCC5Cc5ccccn5)cc4)nc23)CC1 (stereo not drawn) [Example 2-396, 4,4,4-trifluoro-1-[4-[2-[4-[2-(2-pyridylmethyl)pyrrolidine-1-carbonyl]anilino]-[1,2,4]triazolo[1,5-a]pyridin-8-yl]-3,6-dihydro-2H-pyridin-1-yl]butan-1-one]
4.6 nM	O=C(CCC(F)(F)F)N1CC=C(c2cccn3nc(Nc4ccc(C(=O)N5CCN(c6cccnc6)CC5)cc4)nc23)CC1 [Example 2-395, 4,4,4-trifluoro-1-[4-[2-[4-[4-(3-pyridyl)piperazine-1-carbonyl]anilino]-[1,2,4]triazolo[1,5-a]pyridin-8-yl]-3,6-dihydro-2H-pyridin-1-yl]butan-1-one]
4 nM	O=C(CCC(F)(F)F)N1CC=C(c2cccn3nc(Nc4ccc(C(=O)N5CCN(Cc6cccnc6)CC5)cc4)nc23)CC1 [Example 2-394, 4,4,4-trifluoro-1-[4-[2-[4-[4-(3-pyridylmethyl)piperazine-1-carbonyl]anilino]-[1,2,4]triazolo[1,5-a]pyridin-8-yl]-3,6-dihydro-2H-pyridin-1-yl]butan-1-one]
